Where a SMILES comes first, the peptide text is derived from it.
Legend:
NEP [1] = target: T1, NEP (Rattus norvegicus, UniProt P07861); assay: Substance P endoproteolysis by rat peripheral tissue membrane preparations; format: biochemical
T1 construct: peripheral tissue membrane preparations that are known to be enriched in NEP-peptidase; from tissue; host or cells: rat renal outer medulla/kidney, intestine mucosa, placenta, prostate, dental and bone tissues, submandibular gland (membrane preparations)
T1 sequence (P07861 2-750): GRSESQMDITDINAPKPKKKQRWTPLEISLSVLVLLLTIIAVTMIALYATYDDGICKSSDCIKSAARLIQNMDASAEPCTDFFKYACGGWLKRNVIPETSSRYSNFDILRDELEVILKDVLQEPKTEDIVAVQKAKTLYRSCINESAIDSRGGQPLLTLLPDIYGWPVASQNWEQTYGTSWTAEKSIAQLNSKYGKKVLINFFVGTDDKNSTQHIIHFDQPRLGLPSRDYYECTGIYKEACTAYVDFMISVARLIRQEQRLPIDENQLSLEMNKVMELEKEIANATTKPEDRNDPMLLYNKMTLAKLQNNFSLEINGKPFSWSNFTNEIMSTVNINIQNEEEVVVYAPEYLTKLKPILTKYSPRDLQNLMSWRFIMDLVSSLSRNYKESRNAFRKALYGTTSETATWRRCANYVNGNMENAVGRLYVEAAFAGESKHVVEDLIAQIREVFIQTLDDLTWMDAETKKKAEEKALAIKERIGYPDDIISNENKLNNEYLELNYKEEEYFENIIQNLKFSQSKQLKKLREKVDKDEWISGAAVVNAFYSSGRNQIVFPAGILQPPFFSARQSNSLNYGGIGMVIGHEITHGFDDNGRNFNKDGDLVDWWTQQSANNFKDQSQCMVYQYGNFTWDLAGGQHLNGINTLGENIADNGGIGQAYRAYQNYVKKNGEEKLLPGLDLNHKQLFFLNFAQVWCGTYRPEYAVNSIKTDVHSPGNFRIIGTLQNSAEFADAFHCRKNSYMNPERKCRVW
Protocol: FIG. 4-A: Endopeptidase activity of the tissue membrane preparations was determined using 25 nM [3H] substanceP, in the presence of 10 μM bestatin. The enzymatic specific activity expressed in pM/min/μg membrane protein is done in the absence and in the presence of 10 μM sialorphin or NEP inhibitors (10 μM phosphoramidon or 1 μM thiorphan).
FIG. 4-B: Concentration-dependent inhibition by sialorphin of [3H] substanceP catabolism by rat renal membrane preparations. Each point represents the percentage of […] intact [3H] substanceP recovered and calculated as percentage of velocity without inhibitor−velocity in presence of inhibitor/velocity without inhibitor, and (*) represents the mean±SD of four determinations. Sialorphin concentration is expressed in nM and plotted on a log scale in B right. The protein concentration of membrane enzyme were defined according to conditions of measurement of initial velocity.
The same approach was applied to peripheral tissue membrane preparations that are known to be enriched in NEP-peptidase and/or to be targets for sialorphin, in vivo, i.e., renal outer medulla, intestine mucosa, placenta, prostate, dental and bone tissues, as well as submandibular epithelium (Rougeot, C. et al, American Journal of Physiology, (1997) 273, R1309-20; Sales et al., (1991) Regulatory Peptides 33, 209-22) and reviewed by Kenny et al., (1987), Mammalian ectoenzymes 169-210. There is evidence that, almost all these tissues contain substance P released from peripheral parasympathetic and sensory nerve terminals acting near the site of release on target cells that contain the neurokinin receptors to modulate the particular tissue function (McCarson et al., (1999), Neuroscience 93, 361-70). Thus, it appeared that the neuropeptide could be regarded as a relevant biologically NEP substrate at the periphery. However, substance P is cleaved potently by NEP and ACE membrane-bound peptidases, and both enzymes are highly distributed in the renal epithelium (Skidgel et al., (1985), Progress in Clinical & Biological Research 192, 371-8).
The specificity of the peptidase assay was assessed by testing the inhibitory efficacy of selective peptidase inhibitors (at 1-10 μM final concentration to induce maximum inhibitory response) on the endoproteolysis of 3H substance P by the various tissue-membrane enzymes, and by analysing the selective formation of the NEP-related tritiated product of the reaction that was defined, as above using spinal tissue. In addition, under standard conditions of initial velocity measurement, bestatin (10 μM) was added in the incubation medium to prevent unselectively the membrane aminopeptidase activities.

NEP [2] = target: T1, NEP; assay: Kinetic analysis of inhibition of substance P catabolism by rat renal membranes; format: biochemical
Protocol: The inhibitory potency of sialophin was measured by using substance P as substrate at concentrations indicated for A and B, and at 14-24 nM (blank triangle) or 56-105 nM (black triangle) for FIG. 5-C. Concentrations of inhibitor for FIG. 5-A and FIG. 5-B were 0 (black circles), 1500 (blank circle) and 4500 nM (blank diamond). Each point of the untransformed and double reciprocal plots represents the mean of 2 independent determinations of duplicate. Experiments were performed at 25° C. in 250 μl Tris-HCl buffer (50 mM pH 7.4) under initial velocity measurement conditions.
In order to determine inhibitor modality, all the measures of initial velocity of the renal enzymatic reaction were plotted versus substrate concentration for several fixed inhibitor concentrations or versus inhibitor concentration for fixed substrate concentrations.

SMILES: N=C(N)NCCC[C@H](NC(=O)[C@@H]1CCCN1C(=O)[C@H](CC(N)=O)NC(=O)[C@H](Cc1c[nH]cn1)NC(=O)[C@@H](N)CCC(N)=O)C(=O)O [sialorphin, Gln-His-Asn-Pro-Arg] (H-QHNPR-OH; N-terminus and C-terminus assumed)
- inhibitory efficacy on ectopeptidase-sensitive substance P degradation (NEP [1]; inner bone tissues, n=4): 75±10%
- inhibition at 10 µM (NEP [1]; male rat kidney membranes, 25 nM [3H] substance P, 10 μM bestatin, 10 μM sialorphin, n=9, read-out: inhibition of renal membrane substance-P-hydrolytic activity (maximum inhibitory response)): 60 ± 5%
- protection of exogenous 3H substance P from catabolic process (NEP [1]; membrane fractions of the rat intestine): 87±17%
- inhibition of substance-P-hydrolytic activity (NEP [1]; rat SMG (submandibular gland) membranes): 79%
- reduction of 3H-substance P catabolic process (NEP [1]; rat inner dental tissue membranes, inhibitors at 1-10 μM (sialorphin 10 μM)): 39±14%
- decrease of substance P degradation (NEP [1]; rat placenta and prostate tissue membranes, 10 μM): 70±3%
- IC50 (NEP [1]; rat renal membrane preparations, read-out: IC50 on 3H substance-P degradation by rat kidney): 500 to 1000 nM
- raising of the apparent Km of the enzyme for substrate (NEP [2]; 0, 1500 and 4500 nM inhibitor, substance P substrate, rat renal membranes): 2-5 fold
- inhibitor modality (NEP [2]; untransformed, double-reciprocal and Dixon plots, [3H] substance P, renal membrane, 25° C.): competitive inhibition
